# Source: patent US6825209B2, “Compounds having unique CB1 receptor binding selectivity and methods for their production and use” (Research Triangle Institute, priority 2002, dated 2004)
# Read-outs that look alike come from different tables or passages of the source.
# Tests used:
# Assay type in all cases: binding
# CB1 receptor = biological target: T1, CB1 receptor (Rattus norvegicus, UniProt P20272); assay: Radioligand displacement in whole rat brain (CB1) membrane preparations
# T1 construct: Whole rat brains or dissected regions from live CD rats; tissue Charles River or Pel-Freez Biologicals; host or cells: whole rat brain (CD rats), P2 membrane
# Description: CB1 receptor affinity in rat brain.
# Methods—membrane preparation from brain. The methods for tissue preparation are essentially those described by Devane et al. (1988) as modified by Compton et al. (1993) and later by Thomas et al. (1998). Whole rat brains or dissected regions from live CD rats from Charles River or Pel-Freez Biologicals (Rogers, Ark.), or human brain sections obtained from the National Disease Research Institute, were allowed to thaw to room temperature on ice. Both whole brain and dissected brain regions were used because different brain regions may express different cannabinoid receptor subtypes (Skaper et al., 1996; Thomas et al., 1998). The tissue was homogenized with a Kontes Potter-Elvehjem glass-Teflon grinding system (Fisher Scientific, Springfield, N.J.) in buffer 1 (320 mM sucrose, 2 mM EDTA, 5 mM MgCl2. The homogenate was centrifuged at 1600 g for 10 min. The supernatant was saved and combined with the two subsequent supernatants obtained from washing and 1600 g centrifugation of the P1 pellet. The combined supernatant fractions were then centrifuged at 39,000 g for 15 min. The P2 pellet was resuspended in 50 mL of buffer 2 (50 mM Tris.HCl, 2 mM EDTA, 5 mM MgCl2, pH 7.0), incubated at 37° C. for 10 min, then centrifuged at 23,000 g for 10 min. The P2 membrane was resuspended in 50 mL of buffer 2, incubated at 30° C. for 40 min, then centrifuged at 11,000 g for 15 min. The final wash-treated P2 pellet was resuspended in assay buffer 3 (50 mM Tris.HCl, 1 mM EDTA, 3 MM MgCl2, pH 7.4). Protein concentrations were determined by the method of Bradford (1976) using Coomassie brilliant blue dye (Bio-Rad, Richmond, Calif.) and BSA standards (bovine serum albumin, fatty acid free, Sigma Chemical Co., St. Louis, Mo.) prepared in assay buffer 3. The membrane preparation was divided into aliquots and stored at −80° C. For use in the binding assay, an aliquot of frozen membranes was thawed on ice and diluted to a concentration of ca. 0.2 mg/mL in assay buffer.
# Methods—binding assay in brain membrane preparation. The methods for ligand binding are essentially those described by Devane et al. (1988) with the exception that we used a filtration assay. […] All cannabinoid analogs were prepared by suspension in buffer A from a 1-5 mg/mL ethanolic stock. Following incubation at 30° C. for 1 h, binding was terminated by vacuum filtration through pretreated filters in a 96-well sampling manifold (Millipore, Bedford, Mass.). Reaction vessels were washed at least 3 times with 1 mL of ice cold buffer B (50 mM Tris.HCl, 1 mg/mL BSA). The filter plates were air-dried and sealed on the bottom. Liquid scintillant was added to the wells and the top sealed. After incubating the plates in cocktail for at least 2 h, the radioactivity present was determined by liquid scintillation spectrometry. Assays were done in duplicate, and results represent the combined data of three to six independent experiments. All assays were performed in polypropylene test tubes. The GF/C glassfiber filter plates (Packard, Meriden, Conn.) were pretreated in buffer B for at least 1 h.
# (§1) Data analysis. Saturation and displacement data were analyzed by unweighted nonlinear regression of receptor binding data. For displacement studies, curve-fitting and IC50 calculation were done with GraphPad Prism (GraphPad Software, Inc., San Diego, Calif.), which fits the data to one and two-site models and compares the two fits statistically. A similar approach was used for the analysis of isotherm data for calculation of Kd's. A two-site fit was accepted only if it was statistically significant (p<0.05) and the following results were not observed:
# (§2) IC50 values were then converted to Ki values by reported methods (Cheng and Prusoff, 1973). The statistical evaluation of curve-fitting data allowed for a non-arbitrary conclusion based on the displacement data.
# human CB1 receptor = biological target: T2, human CB1 receptor (Homo sapiens, UniProt P21554); assay: Radioligand displacement in human CB1 receptor-transfected cells (HEK-293)
# T2 construct: expressed in transfected cells; host or cells: HEK-293
# Procedure: Human CB1 receptor affinity. The alkyl amide analogs of the present invention were examined using transfected cell lines expressing the human CB1 receptor (Table 3).
# (§3) Methods—binding assay in transfected cell lines. The methods used for performing binding assays in transfected cells expressing human CB1 or CB2 receptors are those used above. The CB1 receptor involved a HEK-293 expression system whereas the CB2 receptor was expressed in CHO-K1 cells. […] The incubations and separations were then performed as described above for rat brain membrane preparations.
# as §1, §2
# human CB2 receptor = biological target: T3, human CB2 receptor (Homo sapiens, UniProt P34972); assay: Displacement of 3H-CP55,940 in human CB2 receptor-transfected cells (CHO-K1); settings: radioligand 3H-CP55940, Tables 6 and 7
# T3 construct: expressed in transfected cells; host or cells: CHO-K1
# Procedure: Human CB2 receptor affinity. The relative selectivity of the analogs for CB1 versus CB2 receptors varied modestly regardless of the structural modifications examined to date.
# as §3, §1, §2
# [1] = Ki, displacement of 3H-CP55940, whole rat brain, 3H-CP55940, Table 4, parallel synthesis analogs, n = 1, concentration assumes 100% yield
# [2] = Ki, displacement of 3H-SR141716A, whole rat brain, 3H-SR141716A, Table 4, parallel synthesis analogs, n = 1, concentration assumes 100% yield
# [3] = Ki, displacement of 3H-WIN55212-2, whole rat brain, 3H-WIN55212-2, Table 4, parallel synthesis analogs, n = 1, concentration assumes 100% yield
# [4] = whole rat brain, 3H-CP55940, Table 4, parallel synthesis analogs, n = 1
# [5] = whole rat brain, 3H-SR141716A, Table 4, parallel synthesis analogs, n = 1
# [6] = whole rat brain, 3H-WIN55212-2, Table 4, parallel synthesis analogs, n = 1
# [7] = displacement of 3H-CP55940, human CB1 transfected cells, 3H-CP55940, Table 5, parallel synthesis analogs, concentration assumes 100% yield
# [8] = displacement of 3H-SR141716A, human CB1 transfected cells, 3H-SR141716A, Table 5, parallel synthesis analogs, concentration assumes 100% yield
# [9] = displacement of 3H-WIN55212-2, human CB1 transfected cells, 3H-WIN55212-2, Table 5, parallel synthesis analogs, concentration assumes 100% yield
# [10] = human CB1 transfected cells, 3H-CP55940, Table 5, parallel synthesis analogs
# [11] = human CB1 transfected cells, 3H-SR141716A, Table 5, parallel synthesis analogs
# [12] = human CB1 transfected cells, 3H-WIN55212-2, Table 5, parallel synthesis analogs
# [13] = whole rat brain membranes, radioligand 3H-CP55940, Tables 1 and 2
# [14] = whole rat brain membranes, radioligand 3H-SR141716A, Tables 1 and 2
# T1 sequence (P20272 whole entry): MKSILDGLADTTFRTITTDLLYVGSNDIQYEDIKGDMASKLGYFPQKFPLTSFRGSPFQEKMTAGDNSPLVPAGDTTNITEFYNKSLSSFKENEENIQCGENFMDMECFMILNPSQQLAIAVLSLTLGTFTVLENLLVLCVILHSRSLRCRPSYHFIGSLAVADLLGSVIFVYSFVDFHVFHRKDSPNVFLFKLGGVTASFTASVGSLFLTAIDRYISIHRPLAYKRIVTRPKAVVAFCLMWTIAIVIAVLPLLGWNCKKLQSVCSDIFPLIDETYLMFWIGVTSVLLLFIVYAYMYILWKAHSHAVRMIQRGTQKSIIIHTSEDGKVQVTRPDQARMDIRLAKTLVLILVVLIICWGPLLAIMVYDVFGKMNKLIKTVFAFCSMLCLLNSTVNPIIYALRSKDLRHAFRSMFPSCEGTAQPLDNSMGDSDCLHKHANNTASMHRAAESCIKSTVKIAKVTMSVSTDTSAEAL
# T2 sequence (P21554 whole entry): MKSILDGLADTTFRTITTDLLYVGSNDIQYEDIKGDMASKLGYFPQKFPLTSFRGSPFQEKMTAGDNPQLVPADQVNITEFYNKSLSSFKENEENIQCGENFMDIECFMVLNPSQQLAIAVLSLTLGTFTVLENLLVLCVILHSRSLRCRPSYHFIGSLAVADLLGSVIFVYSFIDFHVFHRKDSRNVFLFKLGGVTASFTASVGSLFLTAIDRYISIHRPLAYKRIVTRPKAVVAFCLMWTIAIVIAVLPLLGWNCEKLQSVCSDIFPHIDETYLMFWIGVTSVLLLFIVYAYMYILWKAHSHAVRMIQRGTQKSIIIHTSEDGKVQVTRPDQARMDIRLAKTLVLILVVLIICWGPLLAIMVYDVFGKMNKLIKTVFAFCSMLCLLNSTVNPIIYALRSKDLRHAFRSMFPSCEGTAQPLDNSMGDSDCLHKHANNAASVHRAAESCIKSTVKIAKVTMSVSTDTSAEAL
# T3 sequence (P34972 whole entry): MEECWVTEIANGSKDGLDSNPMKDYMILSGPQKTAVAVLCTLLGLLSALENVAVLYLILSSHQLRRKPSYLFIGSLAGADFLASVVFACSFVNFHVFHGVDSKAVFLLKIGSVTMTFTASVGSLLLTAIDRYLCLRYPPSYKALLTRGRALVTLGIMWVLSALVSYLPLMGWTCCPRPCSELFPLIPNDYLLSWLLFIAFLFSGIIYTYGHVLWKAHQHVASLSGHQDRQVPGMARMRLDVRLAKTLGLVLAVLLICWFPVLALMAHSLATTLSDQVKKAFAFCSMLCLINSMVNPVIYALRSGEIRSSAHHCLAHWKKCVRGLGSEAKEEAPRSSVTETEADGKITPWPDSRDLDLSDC
Compound,Ki (CB1 receptor; [1]),Ki (CB1 receptor; [2]),Ki (CB1 receptor; [3]),"Max. Disp. %, 3H-CP55940 (CB1 receptor; [4])","Max. Disp. %, 3H-SR141716A (CB1 receptor; [5])","Max. Disp. %, 3H-WIN55212-2 (CB1 receptor; [6])",Ki (human CB1 receptor; [7]),Ki (human CB1 receptor; [8]),Ki (human CB1 receptor; [9]),"Max. Disp. %, 3H-CP55940 (human CB1 receptor; [10])","Max. Disp. %, 3H-SR141716A (human CB1 receptor; [11])","Max. Disp. %, 3H-WIN55212-2 (human CB1 receptor; [12])",other results
COc1ccc(CCNC(=O)c2nn(-c3ccc(Cl)cc3Cl)c(-c3ccc(Cl)cc3)c2C)cc1 [AM-29],92.6 nM,40.7 nM,24.7 nM,78.8%,95.1%,82.7%,56.9 nM,16.1 nM,74.5 nM,80.3%,96.3%,100%,
Cc1c(C(=O)N2CCc3ccccc3C2)nn(-c2ccc(Cl)cc2Cl)c1-c1ccc(Cl)cc1 [AM-50],194 nM,44.6 nM,152 nM,88.3%,90.5%,89.0%,57.7 nM,21 nM,166 nM,66.3%,90.4%,74.6%,
Cc1c(C(=O)NCCc2ccc(O)cc2)nn(-c2ccc(Cl)cc2Cl)c1-c1ccc(Cl)cc1 [AM-52],71.4 nM,29.8 nM,326 nM,84.7%,100%,94.9%,106 nM,13.6 nM,162 nM,96.1%,99.5%,100%,
COc1ccc(NC(=O)c2nn(-c3ccc(Cl)cc3Cl)c(-c3ccc(Cl)cc3)c2C)cc1 [AN-2],91 nM,11.8 nM,30.4 nM,96.4%,95.4%,85.8%,220 nM,101 nM,128 nM,62.6%,87.3%,68.1%,
CCCCCCCCCCNC(=O)c1nn(-c2ccc(Cl)cc2Cl)c(-c2ccc(Cl)cc2)c1C [BT-1],92.8 nM,45 nM,1390 nM,83.6%,92.5%,67.4%,,,,,,,"Max. Disp. %, 3H-CP55940 (human CB1 receptor): 94.5%; Max. Disp. %, 3H-SR141716A (human CB1 receptor): 95.4%; Max. Disp. %, 3H-WIN55212-2 (human CB1 receptor): 12.4%; Ki (human CB1 receptor; displacement of 3H-CP55940): 184 nM; Ki (human CB1 receptor; displacement of 3H-SR141716A): 24.6 nM; Ki (human CB1 receptor; displacement of 3H-WIN55212-2): 63.8 nM"
CCCCCCCCCCCCNC(=O)c1nn(-c2ccc(Cl)cc2Cl)c(-c2ccc(Cl)cc2)c1C [BT-2],109 nM,53.7 nM,238 nM,82.6%,95.6%,56.5%,176 nM,43.5 nM,13.8 nM,79.5%,89.8%,31.4%,
CCCCCCCCCCCCCNC(=O)c1nn(-c2ccc(Cl)cc2Cl)c(-c2ccc(Cl)cc2)c1C [BT-6],492 nM,172 nM,495 nM,79.3%,97.6%,80.5%,201 nM,4.2 nM,173 nM,75.9%,91.3%,94.9%,
CCCCCCCCCCCNC(=O)c1nn(-c2ccc(Cl)cc2Cl)c(-c2ccc(Cl)cc2)c1C [BT-7],168 nM,25.5 nM,278 nM,86.4%,83.8%,90.3%,45.6 nM,5.2 nM,11.7 nM,82.4%,96.9%,54.9%,
Cc1c(C(=O)NO)nn(-c2ccc(Cl)cc2Cl)c1-c1ccc(Cl)cc1 [MF9725-131-25],,,,,,,,,,,,,"Max. Disp. %, 3H-CP55940 (human CB2 receptor; human CB2 transfected cells): 27.0%; Ki (human CB2 receptor; read-out: Ki, displacement of 3H-CP55940, human CB2 transfected cells): 7820 nM; Ki (CB1 receptor; read-out: Ki, displacement of 3H-CP55940, whole rat brain membranes, radioligand 3H-CP55940, Tables 1 and 2): 1690 nM; Ki (CB1 receptor; read-out: Ki, displacement of 3H-SR141716A, whole rat brain membranes, radioligand 3H-SR141716A, Tables 1 and 2): 1560 nM; Max. Disp. %, 3H-CP55940 (CB1 receptor; [13]): 58.4%; Max. Disp. %, 3H-SR141716A (CB1 receptor; [14]): 65.7%"
CCCCCCC(C)(C)NC(=O)c1nn(-c2ccc(Cl)cc2Cl)c(-c2ccc(Cl)cc2)c1C [MF10110-119-11],,,,,,,,,,,,,"Ki (human CB2 receptor; Ki, displacement of 3H-CP55940, human CB2 transfected cells): 16600 nM; Max. Disp. %, 3H-CP55940 (human CB2 receptor; human CB2 transfected cells): 52.8%; Ki (CB1 receptor; Ki, displacement of 3H-CP55940, whole rat brain membranes, radioligand 3H-CP55940, Tables 1 and 2): 181 nM; Ki (CB1 receptor; Ki, displacement of 3H-SR141716A, whole rat brain membranes, radioligand 3H-SR141716A, Tables 1 and 2): 21.6 nM; Ki (CB1 receptor; Ki, displacement of 3H-WIN55212-2, whole rat brain membranes, radioligand 3H-WIN55212-2, Tables 1 and 2): 10.4 nM; Max. Disp. %, 3H-CP55940 (CB1 receptor; [13]): 83.2%; Max. Disp. %, 3H-SR141716A (CB1 receptor; [14]): 76.4%; Max. Disp. %, 3H-WIN55212-2 (CB1 receptor; whole rat brain membranes, radioligand 3H-WIN55212-2, Tables 1 and 2): 72.2%; Max. Disp. %, 3H-SR141716A (human CB1 receptor): 99.9%; Max. Disp. %, 3H-WIN55212-2 (human CB1 receptor): 86.5%; Ki (human CB1 receptor; displacement of 3H-CP55940): 32.7 nM; Ki (human CB1 receptor; displacement of 3H-SR141716A): 5 nM; Ki (human CB1 receptor; displacement of 3H-WIN55212-2): 14.4 nM"
Cc1c(C(=O)O)nn(-c2ccc(Cl)cc2Cl)c1-c1ccc(Cl)cc1 [SH9631-55],,,,,,,,,,,,,"Ki, displacement of 3H-CP55940 (human CB2 receptor; human CB2 transfected cells): nr; Max. Disp. %, 3H-CP55940 (human CB2 receptor; human CB2 transfected cells): 0.0%; Max. Disp. %, 3H-CP55940 (CB1 receptor; [13]): 8.2%; Ki, displacement of 3H-SR141716A (CB1 receptor; [14]): Nr; Max. Disp. %, 3H-SR141716A (CB1 receptor; [14]): 0%"
